The text below walks through data of patent US9073879B2, “Oxazole derivatives useful as modulators of FAAH” (MERCK SHARP & DOHME CORP., priority 2010, dated 2015).

For assay [1], the target named is T1, human FAAH (Homo sapiens, UniProt O00519).
T1 construct: The full length FAAH was subcloned into the mammalian expression vector, pcDEF.neo, using XbaI and EcoRI restriction sites; expressed in transfected cells
T1 sequence (O00519 1-579): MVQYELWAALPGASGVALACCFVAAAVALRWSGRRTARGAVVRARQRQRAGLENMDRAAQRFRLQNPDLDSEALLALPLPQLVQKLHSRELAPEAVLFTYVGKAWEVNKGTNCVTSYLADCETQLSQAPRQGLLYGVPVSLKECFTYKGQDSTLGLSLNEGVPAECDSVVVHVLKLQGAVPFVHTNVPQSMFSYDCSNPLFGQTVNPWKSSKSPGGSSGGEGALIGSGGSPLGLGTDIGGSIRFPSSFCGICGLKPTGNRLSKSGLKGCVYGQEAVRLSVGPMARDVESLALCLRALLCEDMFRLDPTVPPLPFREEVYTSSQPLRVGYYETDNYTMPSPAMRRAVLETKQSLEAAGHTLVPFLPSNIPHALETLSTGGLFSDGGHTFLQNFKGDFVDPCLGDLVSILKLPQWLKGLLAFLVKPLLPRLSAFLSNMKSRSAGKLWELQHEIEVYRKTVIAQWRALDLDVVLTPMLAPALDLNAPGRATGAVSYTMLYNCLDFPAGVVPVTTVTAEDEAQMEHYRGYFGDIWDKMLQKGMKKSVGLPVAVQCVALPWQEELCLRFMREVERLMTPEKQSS
As to the kind of experiment: FAAH whole cell assay (human Whole cell, FAAH_CHO, AAMCA substrate). In kind it is cell-based. Conditions: CHO cells expressing human FAAH, whole cell format; read-out: human cell_IC50. An excerpt:
(§1) To assist in assay development stable cell lines for human, murine and rat full length FAAH were developed. Human FAAH cDNA (Accession No: NM_001441.1) was purchased from Origene (Rockville, Md.). The full length FAAH was subcloned into the mammalian expression vector, pcDEF.neo, using XbaI and EcoRI restriction sites and used for stable cell line generation.
Murine (accession number NM_010173) and Rat FAAH (accession number NM_024132) was amplified by reverse transcriptase polymerase chain reaction (RT-PCR) from brain cDNA (BD Biosciences, San Jose, Calif.) using primers 1 and 2 or primers 1 and 3 respectively (see Table). The resulting PCR product was ligated into pCR4 TOPO and DNA sequence confirmed. The full length murine FAAH was subcloned into the mammalian expression vector, pcDEFneo using either EcoRI (murine) or KpnI and EcoRI (rat) restriction sites. Chinese hamster ovary cells (CHO) were transfected following manufacturers protocol (AMAXA). Forty eight hours post transfection, cells were trypsinized and transferred to 96 well plates in Iscove's DMEM media supplemented with 2 mM Glutamine, 10% fetal calf serum, 1 mg/ml geneticin and HT Supplement (0.1 mM sodium hypoxanthine, 0.016 mM thymidine) in order to isolate single clones. Following selection in geneticin, individual clones were selected and FAAH activity was assessed using a whole cell fluorescent anandamide assay, modified from Ramarao et al (2005). Following removal of tissue culture media cells were dislodged following addition of Cellstripper (Mediatech, Inc. Manassas, Va.) and transferred to 96 well black clear bottom assay plate, centrifuged at 1,000 rpm for 3 mins and media removed and replaced with assay buffer (50 mM Tris pH8.0, 1 mM EDTA, 0.1% fatty acid free BSA). The reaction was initiated by addition of fluorescent substrate, AMC Arachidonoyl Amide (Cayman Chemical, Ann Arbor, Mich.) to 1 μM and reaction allowed to proceed for 2 hours at room temperature. Release of fluorescence was monitored in a CytoFluor Multiplate Reader. Cells expressing the highest amount of FAAH activity were selected for study with FAAH inhibitors.
(§2) Assays are performed on either cell lysate or microsome fractions prepared as described or in whole cell format employing either the fluorescent substrate AAMCA (Cayman chemical, Ann Arbor, Mich.) or ^3H-anandamide ([ETHANOLAMINE-1-3H] American Radiolabeled Chemicals; 1 mCi/ml). The cell lysate or microsome assay is performed in black PerkinElmer OptiPlates-384F by adding FAAH_CHO (whole cell (shown as human Whole cell or Human WC), cell lysate (shown as human lysate of human LY) or microsome) in assay buffer (50 mM Phosphate, pH 8.0, 1 mM EDTA, 200 mM KCl, 0.2% glycerol, 0.1% fatty acid free BSA) to each well, followed by either DMSO or compound and allowed to incubate at 22-25° C. for fifteen minutes. AAMCA substrate was used to achieve a final concentration of 1 μM and reaction allowed to proceed at room temperature for 1-3 hours. Fluorescent release as a measure of FAAH activity was monitored by reading the plate in an Envision plate Reader (Ex: 360/40 nM; Em: 460/40 nM). Whole cell assay is conducted with cells harvested after rinsing tissue culture flasks three times with Ca^++Mg^++ free PBS, incubating for 10 min in Enzyme free dissociation media and centrifuging for 5 minutes at 1,000 rpm in table top centrifuge. Cells are resuspended in assay buffer at desired cell number in (4×10^4 cells/assay in 96-well format; 1×10^4 cells/assay in 384-well format) and assayed as described.

Assay [2] concerns the target T1, human FAAH. Kind of assay: FAAH cell lysate assay (human lysate, FAAH_CHO, AAMCA substrate). The class given is biochemical. The note with it: lysate of CHO cells expressing human FAAH; read-out: human lysate_IC50.
Description: as §1
CHO cells expressing FAAH were used to prepare either crude cell lysate or microsome fractions. To harvest cells, tissue culture media was decanted, the monolayer washed three times with Ca^++Mg^++ free PBS and cells recovered after 15 mm in enzyme free dissociation media (Millipore Corp, Billerica, Mass.). Cells were collected by centrifuging at 2000 rpm for 15 min. and the cell pellet re-suspended with 50 mM HEPES (pH 7.4) containing 1 mM EDTA and the protease inhibitors aprotinin (1 mg/ml) and leupeptin (100 μM). The suspension was sonicated at 4° C. and the cell lysate recovered after centrifuging at 12,000×g (14,600 rpm, SS34 rotor) for 20 min at 4° C. to form a crude pellet of cell debris, nuclei, peroxisomes, lysosomes, and mitochondria; the supernatant or cell lysate was used for FAAH enzyme assay. In some cases, microsomes fractions enriched in FAAH were prepared by centrifuging the cell lysate further at 27,000 rpm (100,000×g) in SW28 rotor for 50 minutes at 4° C. The pellet containing FAAH-enriched microsomes was re-suspend in 50 mM HEPES, (pH 7.4) 1 mM EDTA, and any remaining DNA sheared by passage of material through a 23 gauge needle and aliquots of enzyme were store at −80° C. prior to use.
(American Radiolabeled Chemicals; 1 mCi/ml) with FAAH (Life Sciences (1995), 56, 1999-2005 and Journal of Pharmacology and Experimented Therapeutics (1997), 283, 729-734), Analytical. Biochemistry (2003), 318:270-5. In addition, routine assays were performed monitoring hydrolysis of araehidonyl-7-amino-4-methylcoumarin amide (AAMCA) by following increase in fluorescence upon release of 7-amino 4-methyl coumarin (λEX=355 nm, (λEM=460 nm). Analytical. Biochemistry (2005). 343:143-51
as §2

In the case of `COC(=O)c1ccc(OCc2nc(C3CC3)oc2Sc2ccc(Cl)cn2)cc1` [Example D4.1, methyl 4-({5-[(5-chloropyridin-2-yl)sulfanyl]-2-cyclopropyl-1,3-oxazol-4-yl}methoxy)benzoate], the IC50 turned out to be 1310 nM at human FAAH [1] and 187 nM on human FAAH [2].

On to `N#Cc1ccc(OCc2nc(-c3ccc(F)cc3)oc2Sc2ccc(Cl)cn2)cc1` [Example B2.6, 4-({5-[(5-chloropyridin-2-yl)sulfanyl]-2-(4-fluorophenyl)-1,3-oxazol-4-yl}methoxy)benzonitrile], for which the IC50 at human FAAH [1] amounted to 360 nM; at human FAAH [2] it was 47 nM.

As to `Fc1ccc(-c2nc(CNc3ccc4[nH]ncc4c3)c(Sc3ccc(Cl)cn3)o2)cc1` [Example B5.6, N-({5-[(5-chloropyridin-2-yl)sulfanyl]-2-(4-fluorophenyl)-1,3-oxazol-4-yl}methyl)-1H-indazol-5-amine], the results for the IC50 on human FAAH [1] and on human FAAH [2] were 38 nM and 22 nM, respectively.

Regarding `Fc1ccc(-c2nc(COc3ccc4[nH]ccc4c3)c(Sc3ccc(Cl)cn3)o2)cc1` [Example B2.10, 5-({5-[(5-chloropyridin-2-yl)sulfanyl]-2-(4-fluorophenyl)-1,3-oxazol-4-yl}methoxy)-1H-indole], the IC50 on human FAAH [1] came out at 298 nM; on human FAAH [2], 56 nM.

`COC(=O)c1ccc(OCc2nc(-c3ccc(F)cc3)oc2Sc2ccc(Cl)cn2)cn1` [Example B2.5, methyl 5-({5-[(5-chloropyridin-2-yl)sulfanyl]-2-(4-fluorophenyl)-1,3-oxazol-4-yl}methoxy)pyridine-2-carboxylate]: the values for the IC50 on human FAAH [1] and on human FAAH [2] were 143 nM and 20 nM, respectively.

Regarding `Cn1ncnc1COCc1nc(-c2ccc(F)cc2)oc1Sc1ccc(Cl)cn1` [Example B2.12, 5-chloro-2-{[2-(4-fluorophenyl)-4-{[(1-methyl-1H-1,2,4-triazol-5-yl)methoxy]methyl}-1,3-oxazol-5-yl]sulfanyl}pyridine], the IC50 on human FAAH [1] was 2150 nM; at human FAAH [2] it was 807 nM.
